Data published in publication PMC9312917 (2022).

How the values were obtained:
Assay in all cases: graphene oxide fluorescence assay
Conditions in all cases: 100 mM NaCl, 5 mM KCl, 2 mM MgCl2, 1 mM CaCl2; 20 mM Tris-HCl pH 7.5, room temperature; aptamer 0-400 nM titrated at fixed 1 µg/mL SQX
[1] = system: SBA24-1 (DNA, aptamer) GCGTGAGC
[2] = system: SBA40-1 (DNA, aptamer) GGCTGACTGCT
[3] = system: SBA28-1 (DNA, aptamer) CCCTAGGGG

SMILES: Nc1ccc(S(=O)(=O)Nc2cnc3ccccc3n2)cc1
- Kd [1]: 74.19 nM
- Kd [2]: 36.73 nM
- Kd [3]: 27.36 nM
